How the values were obtained:
HepG2 cell line = test: Cell cycle analysis (PI, flow cytometry); format: cell-based, human
Description: (§1) Cell cycle analysis was performed to decide if the newly synthesized thienopyrimidine derivatives arrested the cell cycle and at what phase of the cell cycle, the HepG2 and MCF-7 cell lines were arrested. The experiments were performed as previously described by Tolba et al.. HepG2 and MCF-7 cell lines were seeded and incubated with the tested compounds in 6-well plates. After incubation overnight, the cells were washed twice with ice-cold phosphate-buffered saline (PBS), detached by EDTA-trypsinization from the plates, harvested by centrifugation, fixed in ice-cold 70% (v/v) ethanol, and washed with phosphate-buffered saline (PBS, pH 7.2 ± 0.2). The cells were resuspended with 0.1 mg/ml RNase, stained with […] propidium iodide (PI), and analyzed by flow cytometry using a FACSCalibur flow cytometer (BD Biosciences, San Jose, CA). CellQuest software (Becton Dickinson) was used to determine the cell cycle distributions after incubation with 5-FU or tested compounds. Exposure of HepG2 and MCF-7 cell lines to these compounds could interfere with the normal cell cycle distribution.

MCF-7 cell line = test: Cell cycle analysis (PI, flow cytometry); format: cell-based, human; conditions: compared with control cells
Description: as §1

HepG2 cells = test: Annexin V-FITC/PI apoptotic assay; format: cell-based, human
From the text: Annexin V-fluorescein isothiocyanate (FITC) and counterstaining with propidium iodide (PI) using the Annexin V-FITC/PI apoptosis detection kit (BD Biosciences, San Diego, CA) were employed to distinguish early and late apoptotic cells according to the manufacturer's directions. Annexin V conjugated with fluorescein isothiocyanate was used to quantify the loss of phosphatidylserine asymmetry in cell membranes involved in apoptosis, and propidium iodide can distinguish between early apoptosis, late apoptotic, and necrotic cells. Analyses were achieved by using a FACSCalibur flow cytometer (BD Biosciences, San Jose, CA).
Cells were gently washed twice with PBS accompanied by tryptic digestion (0.25% trypsin/EDTA) and washed yet again with PBS. All the cells including the floating and adherent ones were harvested, pooled and stained with […] in 1× binding buffer for 15 min at room temperature in the dark. Analyses were achieved by FACS Calibur flow cytometer (BD Biosciences, San Jose, CA).

[1] = test system: Bax, Bcl-2, caspase-3, and caspase-9 in MCF-7; test: RT-PCR relative expression of apoptosis markers; format: cell-based, human; conditions: IC50, 8-hour incubation; for expression levels of Bax / expression levels of Bcl-2 / expression levels of caspase-3 / expression levels of caspase-9: vs control
From the text: We determined the effect of IC50 concentration of newly synthesized thienopyrimidine derivatives (3a-e and 3g and 3b and 3g) on the relative expression levels of some markers of apoptosis in HepG2 and MCF-7 cell lines, respectively. These included the antiapoptotic marker Bcl-2 as well as the apoptotic markers Bax, caspase-3, and caspase-9 [33]. BIORAD iScript™ One-Step RT-PCR kit with SYBR® Green was used to assess the relative levels of expression of apoptosis markers. The measurement was carried out according to the technique of reverse transcription polymerase chain reaction (RT-PCR) using the Rotor-Gene RT-PCR system, and the method of the used kit was done based on the manufacturer's instructions. The procedure of this assay included the following:
Based on the manufacturer's instructions, the Qiagen RNeasy Extraction Kit (Qiagen Ltd., UK) was used to isolate mRNA from approximately 1 × 10^7 cells according to the cell line.
Mix all the following reagents to get the total volume (50 μl): 2X SYBR® Green RTPCR reaction mixture (25 μl), forward primer […] (1.5 μl), reverse primer […] (1.5 μl), nuclease-free water (11 μl), RNA template (1 pg-100 ng total RNA) (10 μl), and iScript reverse transcriptase (1 μl) for One-Step RT-PCR.
The thermal cycler (Rotor-Gene) program used was as follows: one cycle for reverse transcription at 50°C for 10 minutes and one cycle for RT inactivation/Hot-start activation at 95°C for 5 minutes and then 45 cycles for qPCR (10 s at 95°C, 30 seconds for annealing at 55°C, and 30 seconds for extension at 72°C), and this is followed by the final extension (one cycle) at 72°C for 10 minutes.

MDA in MCF-7 cells = test: Lipid peroxidation (MDA); format: cell-based, human; conditions: IC50, in comparison to untreated cells
Description: MDA is described as a lipid peroxidation product. It reacts with thiobarbituric acid to produce a red substance that is absorbed at 535 nm.
MDA has been described as the product of lipid peroxidation that reacts with thiobarbituric acid to produce a red substance that is absorbed at 535 nm (Kei et al., 1978). HepG2 and MCF7 cells treated with synthetic thienopyrimidine were mixed with 2 ml of solution of trichloroacetic acid (TCA), thiobarbituric acid (TBA) and hydrochloric acid (HCl) and mixed thoroughly, and then heated in a boiling water bath. during 15 minutes. After cooling, the precipitate was removed by centrifugation at 3000 rpm for 10 minutes. Relative to the reagent blank, which measures the absorbance at 535 nm, the blank reagent contains all reagents except cells. The MDA concentration is expressed as nmol/ml using a calibration curve.

[2] = test system: GR activity in MCF-7 cells; test: Glutathione reductase (GR) activity; format: cell-based, human; conditions: IC50, in comparison to untreated cells
Description: The activity of GR was determined by the decrease in absorbance caused by the oxidation of NADPH during the reduction of oxidized GSH [41].
The activity of GR was determined by the decrease in absorbance caused by the oxidation of NADPH during the reduction of oxidized GSH (Malik et al., 2019). HepG2 or MCF-7cells were pre-treated with newly synthesized chalcone-thienopyrimidines derivatives for 24 hours, harvested and the pellet was re-suspended in twice the volume of protein extraction buffer (PEB). Cells were then vortexed vigorously for 2 min, repeating the cycle three times. Homogenate was then centrifuged at 10,000 rpm for 10 min. The supernatant was collected and was used to quantitate antioxidant enzyme GR using standard protocols. All determinations were made in at least five replicates and the values given are the average of these replicates.

SMILES: CCOC(=O)Cn1c(SCC(=O)Nc2ccc(C(=O)/C=C\c3cc(OC)c(OC)c(OC)c3)cc2)nc2sc3c(c2c1=O)CCN(C(=O)OCC)C3 [Compound 3b, Ethyl (Z)-3-(2-Ethoxy-2-oxoethyl)-4-oxo-2-((2-oxo-2-((4-(3-(3,4,5 trimethoxyphenyl)acryloyl)phenyl)amino)ethyl)thio)-3,5,6,8 tetra-hydropyrido[4′,3′:4,5]thieno[2,3-d]pyrimidine-7(4H)-carboxylate]
- cell population in pre-G1 phases compared with control cells (HepG2 cell line): significant increase
- G1 and pre-G1 arrest (MCF-7 cell line): significantly (P < 0.05) induced G1 and pre-G1 arrest
- early and late apoptosis (HepG2 cells): significantly exhibited early and late apoptosis
- Bax/Bcl-2 ratios [1]: strikingly elevated
- expression levels of Bax [1]: significant elevation
- expression levels of Bcl-2 [1]: remarkable decrease
- expression levels of caspase-3 [1]: significant elevation
- expression levels of caspase-9 [1]: significant elevation
- MDA (MDA in MCF-7 cells): significant elevation
- GR activity [2]: significant decline
- melting point: 172 to 173 °C

SMILES: CCOC(=O)Cn1c(SCC(=O)Nc2ccc(C(=O)/C=C\c3cccc([N+](=O)[O-])c3)cc2)nc2sc3c(c2c1=O)CC(C)(C)NC3(C)C [Compound 3g, Ethyl (Z)-2-(6,6,8,8-Tetramethyl-2-((2-((4-(3-(3-nitrophenyl)acryloyl)-phenyl)amino)-2-oxoethyl)thio)-4-oxo-5,6,7,8-tetrahydropyrido[4′,3′:4,5]thieno[2,3-d]pyrimidin-3(4H)-yl)acetate]
- cell population in G2/M compared with control cells (HepG2 cell line): substantial increase
- cell population in pre-G1 phases compared with control cells (HepG2 cell line): significant increase
- G1 and pre-G1 arrest (MCF-7 cell line): significantly (P < 0.05) induced G1 and pre-G1 arrest
- early and late apoptosis (HepG2 cells): significantly exhibited early and late apoptosis
- Bax/Bcl-2 ratios [1]: strikingly elevated
- expression levels of Bax [1]: significant elevation
- expression levels of Bcl-2 [1]: remarkable decrease
- expression levels of caspase-3 [1]: significant elevation
- expression levels of caspase-9 [1]: significant elevation
- MDA (MDA in MCF-7 cells): significant elevation
- GR activity [2]: significant decline
- melting point: 194 to 195 °C

Reference: paper PMC8728392, “Synthesis, Anticancer Assessment, and Molecular Docking of Novel Chalcone-Thienopyrimidine Derivatives in HepG2 and MCF-7 Cell Lines” (Oxidative Medicine and Cellular Longevity, 2021)
